# Patent publication US8008288B2, “Anti-inflammatory A-aminocyclolactam compounds” (Cambridge Enterprise Limited, priority 2004, dated 2011)
# What was measured:
# [1] = system: MCP-1 induced leukocyte migration (THP-1 cells); assay: Inhibition of chemokine (MCP-1) induced leukocyte migration in vitro, transwell assay; type: cell-based, human
# Description: In principle, this assay consists of two chambers separated by a porous membrane. The chemoattractant is placed in the lower compartment and the cells are placed in the upper compartment. After incubation for a period at 37° C. the cells move towards the chemoattractant, and the number of cells in the lower compartment is proportional to the chemoattractant activity (relative to a series of controls).
# This assay can be used with a range of different leukocyte populations. For example, freshly prepared human peripheral blood leukocytes may used. Alternatively, leukocyte subsets may be prepared, including polymorphonuclear cells or lymphocytes or monocytes using methods well known to those skilled in the art such as density gradient centrifugation or magnetic bead separations. Alternatively; immortal cell lines which have been extensively validated as models of human peripheral blood leukocytes may be used, including, but not limited to THP-1 cells as a model of monocytes or Jurkat cells as model of naïve T cells.
# The THP-1 cell line (European Cell culture Collection) were used as the leukocyte cell population.
# The following procedure is used for testing the invention compounds for MCP-1 induced leukocyte migration:
# First, the cell suspension to be placed in the upper compartment is prepared. […]
# [2] = type: in vitro ADME, human
# Excerpt: As an approach to identifying such stable analogs, various derivatives of (S)-3-(undec-10-enoyl)-aminoglutarimide have been tested for their stability in serum.
# [3] = cited from earlier work
compound,measurement,setting,value
O=C1NCCCC[C@@H]1NC(=O)C12CC3CC(CC(C3)C1)C2 [(S)-3-(adamantane-1-carbonylamino)azepin-2-one],potency in vitro as broad-spectrum chemokine inhibitor (BSCI),[1]; in vitro,sub-nanomolar
C=CCCCCCCCCC(=O)[C@@H]1CCCNC1=O [(S)-3-(undec-10-enoyl)-tetrahydropyridin-2-one],stability in human serum,"[2]; human, 7 days",at least 7 days
same,potency compared with the parental molecule,[1]; parental molecule (S)-3-(undec-10-enoyl)-aminoglutarimide,considerably reduced potency
"C=CCCCCCCCCC(=O)N[C@H]1CCC(=O)NC1=O [NR58,4, (S)-3-(undec-10-enoyl)-aminoglutarimide]",enzymatic ring opening of the aminoglutarimide ring in serum,[2],susceptible to enzymatic ring opening in serum
c(DCys-DGln-DIle-DTrp-DLys-DGln-DLys-DPro-DAsp-DLeu-DCys)-NH2 [NR58-3.14.3],half-life period of clearance from blood plasma,[3]; after intravenous injection,less than 30 minutes
same,oral bioavailability,"[3]; in vivo, po",not orally bioavailable
